Experiment [1] can be described thus: Induction of molecular glue effect mediated DNMT1 degradation in human HCT-116 cells assessed as reduction in DNMT1 protein level incubated for 24 hrs by Western blot analysis. In kind it is cell-based. Particulars: HCT-116, 24 h.
The next experiment has as its system HCT-116. Kind of experiment: Induction of molecular glue effect mediated DNMT1 degradation in human HCT-116 cells assessed as reduction in DNMT1 protein level by measuring maximal efficacy at 1 uM incubated for 24 hrs by Western blot analysis relative to control. In kind it is cell-based. Background: In western blotting, separated proteins are transferred to a membrane and probed.

Experiment [2] has as its target DNA (cytosine-5)-methyltransferase 1 (Homo sapiens, UniProt P26358). Kind of experiment: Inhibition of human DNMT1 (350 to 1600 residues) extracted from Escherichia coli BL21 (DE3)-codon plus-RIL cells in presence of SAM and hemimethylated DNA.

Where only a bound is given, the exact number is not on record here.

The values below come from ChEMBL document CHEMBL6121066, “Structure-Activity Relationship Studies of DNA Methyltransferase 1 Monovalent Degraders” (J Med Chem, 2025).

Chain of DNA (cytosine-5)-methyltransferase 1 (P26358 whole entry, the tested form may be a part): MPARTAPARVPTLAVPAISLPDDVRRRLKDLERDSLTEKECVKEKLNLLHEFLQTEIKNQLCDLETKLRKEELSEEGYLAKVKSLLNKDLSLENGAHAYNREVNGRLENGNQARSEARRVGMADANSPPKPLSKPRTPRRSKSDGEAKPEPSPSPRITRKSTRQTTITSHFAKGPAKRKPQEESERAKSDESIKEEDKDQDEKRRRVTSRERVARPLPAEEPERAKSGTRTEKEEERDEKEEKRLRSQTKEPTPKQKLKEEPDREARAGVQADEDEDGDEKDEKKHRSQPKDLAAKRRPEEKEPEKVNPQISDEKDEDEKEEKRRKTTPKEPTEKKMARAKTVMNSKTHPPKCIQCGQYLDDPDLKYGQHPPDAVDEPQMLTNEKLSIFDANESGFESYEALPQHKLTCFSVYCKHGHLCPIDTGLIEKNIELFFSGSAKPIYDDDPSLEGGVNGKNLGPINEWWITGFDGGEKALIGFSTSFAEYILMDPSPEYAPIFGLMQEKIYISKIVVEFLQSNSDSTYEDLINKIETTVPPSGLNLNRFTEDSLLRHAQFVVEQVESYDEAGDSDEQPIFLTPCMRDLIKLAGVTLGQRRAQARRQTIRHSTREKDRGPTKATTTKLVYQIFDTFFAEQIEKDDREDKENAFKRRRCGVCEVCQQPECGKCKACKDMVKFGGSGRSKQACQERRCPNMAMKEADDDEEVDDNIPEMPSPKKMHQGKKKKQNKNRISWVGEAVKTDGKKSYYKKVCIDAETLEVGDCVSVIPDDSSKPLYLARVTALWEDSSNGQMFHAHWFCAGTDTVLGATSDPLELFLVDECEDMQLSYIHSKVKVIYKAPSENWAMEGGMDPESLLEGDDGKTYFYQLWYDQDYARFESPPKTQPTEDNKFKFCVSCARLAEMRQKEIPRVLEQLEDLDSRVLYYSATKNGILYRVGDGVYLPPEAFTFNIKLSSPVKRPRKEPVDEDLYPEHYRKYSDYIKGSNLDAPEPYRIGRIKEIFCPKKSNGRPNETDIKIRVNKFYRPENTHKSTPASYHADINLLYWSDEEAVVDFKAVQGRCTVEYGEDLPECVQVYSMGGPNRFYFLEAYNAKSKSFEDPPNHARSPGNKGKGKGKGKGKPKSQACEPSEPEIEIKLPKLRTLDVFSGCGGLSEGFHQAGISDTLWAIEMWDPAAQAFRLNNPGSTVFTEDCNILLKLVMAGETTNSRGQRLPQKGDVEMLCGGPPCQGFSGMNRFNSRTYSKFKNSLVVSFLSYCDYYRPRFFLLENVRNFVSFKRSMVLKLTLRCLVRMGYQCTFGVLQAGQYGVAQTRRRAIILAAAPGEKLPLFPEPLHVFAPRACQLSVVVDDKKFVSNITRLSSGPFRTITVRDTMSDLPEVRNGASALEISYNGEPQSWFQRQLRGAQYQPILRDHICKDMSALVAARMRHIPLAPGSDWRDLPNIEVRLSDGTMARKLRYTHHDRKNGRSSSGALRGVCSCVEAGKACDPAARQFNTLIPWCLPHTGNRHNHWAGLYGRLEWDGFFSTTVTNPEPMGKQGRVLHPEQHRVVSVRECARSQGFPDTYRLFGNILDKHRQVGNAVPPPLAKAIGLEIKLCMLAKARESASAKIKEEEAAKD

Turning to `CCC(=O)N1CCN(c2nc(SC(C(N)=O)c3ccccc3)c(C#N)c(CC)c2C#N)CC1` (stereo not drawn), the DC50 in experiment [1] came out at 51 nM. The maximal response (Emax) in the experiment on HCT-116 is 89%.
The like results for `CCc1c(C#N)c(SC(C(N)=O)c2ccccc2)nc(N(C)CC(N)=O)c1C#N` (stereo not drawn) were, in that order, 99 nM and 88%.
In the same order, the values of `CCc1c(C#N)c(SC(C(N)=O)c2ccccc2)nc(N2CCS(=O)(=O)CC2)c1C#N` (stereo not drawn) are 362 nM and 74%.
As for `CCc1c(C#N)c(SC(C(N)=O)c2ccccc2)nc(N2CCN(C(=O)c3ccc(C(C)C)s3)CC2)c1C#N` (stereo not drawn), in experiment [1], the DC50 worked out at 405 nM. Further, the Emax in the experiment on HCT-116 turned out to be 71%.
As to `CCCNC(=O)C(Sc1nc(N2CCC(N)CC2)c(C#N)c(CC)c1C#N)c1ccccc1` (stereo not drawn), the 50% degradation concentration (DC50) in experiment [1] was greater than 1000 nM. The Emax in the experiment with HCT-116 turned out to be 13%.
The like results for `CCc1c(C#N)c(SC(C(N)=O)c2ccccc2)nc(N2CCN(C(=O)C3CCCCCC3)CC2)c1C#N` (stereo not drawn) were, in that order, 175 nM and 87%.
The like results for `CCc1c(C#N)c(SC(C(N)=O)c2ccccc2)nc(N2CC3(CN(C(=O)C(C)(C)C)C3)C2)c1C#N` (stereo not drawn) were, in that order, 946 nM and 43%.
In the same order, the values of `CCc1c(C#N)c(SC(C(N)=O)c2ccccc2)nc(N2CCC(NC(=O)C34CC5CC(CC(C5)C3)C4)CC2)c1C#N` (stereo not drawn) are 35 nM and 92%.
As to `CCc1c(C#N)c(SC(C(N)=O)c2ccccc2)nc(N2CCN(C(=O)c3cc[nH]n3)CC2)c1C#N` (stereo not drawn), the DC50 in experiment [1] stood at 144 nM. Moreover, the Emax in the experiment on HCT-116 turned out to be 89%.
In the same order, the values of `CCc1c(C#N)c(SC(C(N)=O)c2ccccc2)nc(N2CCN(C(=O)c3ccc(Br)cc3)CC2)c1C#N` (stereo not drawn) are 563 nM and 79%.
Take `CCc1c(C#N)c(SC(C(N)=O)c2ccccc2)nc(N2CCN(C(=O)c3ccco3)CC2)c1C#N` (stereo not drawn): the DC50 in experiment [1] was 42 nM. In the experiment on HCT-116, the Emax was found to be 94%.
In the same order, the values of `CCc1c(C#N)c(SC(C(N)=O)c2ccccc2)nc(N2CCC(N)C2)c1C#N` (stereo not drawn) are 92 nM and 87%.
For `CCc1c(C#N)c(SC(C(N)=O)c2ccccc2)nc(N2CCNC(=O)CC2)c1C#N` (stereo not drawn), the DC50 in experiment [1] stood at 819 nM. Besides, the Emax in the experiment on HCT-116 was 58%.
In the same order, the values of `CCc1c(C#N)c(SC(C(N)=O)c2ccccc2)nc(N2CCN(C)CC2)c1C#N` (stereo not drawn) are greater than 1000 nM and 46%.
The like results for `CCc1c(C#N)c(SC(C(N)=O)c2ccccc2)nc(N2CCC(NC(C)=O)CC2)c1C#N` (stereo not drawn) were, in that order, greater than 1000 nM and 13%.
In the same order, the values of `CCc1c(C#N)c(SC(C(N)=O)c2ccccc2)nc(N2CCC(=O)N(C)CC2)c1C#N` (stereo not drawn) are 121 nM and 86%.
On to `CCc1c(C#N)c(S[C@@H](C(N)=O)c2ccccc2)nc(N(C)C)c1C#N`, for which, in the experiment on HCT-116, the Emax worked out at 89%.
With `CCc1c(C#N)c(SC(C(N)=O)c2ccccc2)nc(N2CCNCC2)c1C#N` (stereo not drawn), in experiment [1], the DC50 is 184 nM. The maximal response (Emax) in the experiment on HCT-116 was 78%.
Regarding `CCc1c(C#N)c(SC(C(N)=O)c2ccccc2)nc(N2CCC(N(C)C)CC2)c1C#N` (stereo not drawn), in experiment [1], the DC50 came to 35 nM. Besides, the Emax with HCT-116 was 92%.
The like results for `CCc1c(C#N)c(SC(C(N)=O)c2ccccc2)nc(N2CCN(C(=O)C(C)(C)C)CC2)c1C#N` (stereo not drawn) were, in that order, 63 nM and 88%.
Regarding `CCc1c(C#N)c(SC(C(N)=O)c2ccccc2)nc(N2CCN(C)C(=O)C2)c1C#N` (stereo not drawn), the 50% degradation concentration (DC50) in experiment [1] was determined as 190 nM. In addition, the Emax in the experiment with HCT-116 was determined as 87%.
In the case of `CCc1c(C#N)c(SC(C(N)=O)c2ccccc2)nc(N2CCN(C(=O)c3cc4ccccc4s3)CC2)c1C#N` (stereo not drawn), the DC50 in experiment [1] amounted to 714 nM. Moreover, the Emax in the experiment with HCT-116 came out at 74%.
Take `CCc1c(C#N)c(SC(C(N)=O)c2ccccc2)nc(N2CCCNCC2)c1C#N` (stereo not drawn): the half-maximal degradation concentration (DC50) in experiment [1] worked out at 119 nM. The Emax in the experiment on HCT-116 was determined as 87%.
In the same order, the values of `CCc1c(C#N)c(SC(C(N)=O)c2ccccc2)nc(N(C)CCN)c1C#N` (stereo not drawn) are 78 nM and 79%.
In the case of `CCc1c(C#N)c(NCC(N)=O)nc(SC(C(N)=O)c2ccccc2)c1C#N` (stereo not drawn), in experiment [1], the 50% degradation concentration (DC50) is greater than 1000 nM. The maximum response (Emax) in the experiment on HCT-116 is 32%. The IC50 in experiment [2] was greater than 3000 nM.
Take `CCc1c(C#N)c(SC(C(N)=O)c2ccccc2)nc(N2CCNC(=O)C2)c1C#N` (stereo not drawn): the DC50 in experiment [1] came to 534 nM. The Emax in the experiment on HCT-116 was 65%.
The like results for `CCc1c(C#N)c(SC(C(N)=O)c2ccccc2)nc(N2CCC(NC(=O)C(C)(C)C)CC2)c1C#N` (stereo not drawn) were, in that order, 39 nM and 90%.
In the same order, the values of `CCc1c(C#N)c(SC(C(N)=O)c2ccccc2)nc(N2CCN(C(C)=O)CC2)c1C#N` (stereo not drawn) are 107 nM and 87%.
For the compound `CCc1c(C#N)c(SC(C(N)=O)c2ccccc2)nc(N(C)CCNC(C)=O)c1C#N` (stereo not drawn), in experiment [1], the DC50 was determined as 753 nM. Moreover, the Emax in the experiment with HCT-116 amounted to 56%.
The like results for `CCc1c(C#N)c(SC(C(N)=O)c2ccccc2)nc(N2CCN(C(=O)c3nccs3)CC2)c1C#N` (stereo not drawn) were, in that order, 89 nM and 90%.
Take `CCc1c(C#N)c(SC(C(=O)NC)c2ccccc2)nc(N2CCC(N)CC2)c1C#N` (stereo not drawn): the DC50 in experiment [1] turned out to be 111 nM. For the same compound, the Emax in the experiment with HCT-116 turned out to be 82%.
The like results for `CCc1c(C#N)c(SC(C(N)=O)c2ccccc2)nc(N2CCN(C(=O)C3CNC3)CC2)c1C#N` (stereo not drawn) were, in that order, 820 nM and 56%.
For `CCc1c(C#N)c(SC(C(N)=O)c2ccccc2)nc(N2CCN(C(=O)CC(C)C)CC2)c1C#N` (stereo not drawn), in experiment [1], the DC50 amounted to 65 nM. Moreover, the Emax in the experiment on HCT-116 stood at 93%.
For the compound `CCc1c(C#N)c(SC(C(N)=O)c2ccccc2)nc(N2CCN(C(=O)C34CC5CC(CC(C5)C3)C4)CC2)c1C#N` (stereo not drawn), in experiment [1], the DC50 was found to be 409 nM. Further, the Emax with HCT-116 was 80%.

What is called DC50 is the concentration giving 50% degradation. Usually Emax stands for the maximal effect, on the per cent scale that the assay sets. One may read the IC50 as the midpoint of a concentration-inhibition curve.
